Assays:
Assay in all cases: cells
Design in all cases: Oncolines panel cell viability, ATPlite 1Step luminescence, duplicate 9-point dose response, IC50
HCT-15 = conditions: Homo sapiens, HCT-15; 72 h viability; read-out: SJ3149
HCT 116 = conditions: Homo sapiens, HCT-116; 72 h viability; read-out: SJ3149
RPMI-7951 = conditions: Homo sapiens, RPMI-7951; 72 h viability; read-out: SJ3149
K-562 = conditions: Homo sapiens, K562; 72 h viability; read-out: SJ3149
SUP-T1 = conditions: Homo sapiens, SUP-T1; 72 h viability; read-out: SJ3149
THP-1 = conditions: Homo sapiens, THP-1; 72 h viability; read-out: SJ3149
PF-382 = conditions: Homo sapiens, PF-382; 72 h viability; read-out: SJ3149
NCI-H661 = conditions: Homo sapiens, NCI-H661; 72 h viability; read-out: SJ3149
U-2 OS = conditions: Homo sapiens, U2OS; 72 h viability; read-out: SJ3149
PL-21 = conditions: PL-21; 72 h viability; read-out: SJ3149
MIA PaCa-2 = conditions: Homo sapiens, MIA PaCa-2; 72 h viability; read-out: SJ3149
DLD-1 = conditions: Homo sapiens, DLD-1; 72 h viability; read-out: SJ3149
Kasumi-1 = conditions: Homo sapiens, Kasumi 1; 72 h viability; read-out: SJ3149
786-O = conditions: Homo sapiens, 786-0; 72 h viability; read-out: SJ3149
A-427 = conditions: Homo sapiens, A-427; 72 h viability; read-out: SJ3149
J82 = conditions: Homo sapiens, J82; 72 h viability; read-out: SJ3149

Measured: IC50

O=C1CCC(N2Cc3cc(Nc4noc5ccccc45)ccc3C2=O)C(=O)N1 (stereo not shown) [SJ3149]
> 31.6 µM: HCT-15 | HCT 116 | RPMI-7951 | K-562 | SUP-T1 | THP-1 | PF-382 | NCI-H661 | U-2 OS | PL-21 | MIA PaCa-2 | DLD-1 | Kasumi-1 | 786-O | A-427 | J82

Source: article PMC10791743, “Selective CK1α degraders exert antiproliferative activity against a broad range of human cancer cell lines” (Nature Communications, 2024)
